Measurements published in ChEMBL document CHEMBL3044920, “Progress in understanding molecular mechanisms and evolution of resistance to succinate dehydrogenase inhibiting (SDHI) fungicides in phytopathogenic fungi” (Crop Prot, 2010).

Columns and labels:
[1] = system: Alternaria alternata; test: Antifungal activity against boscalid-resistant Alternaria alternata expressing AaSDHD H133R mutant assessed as inhibition of mycelial growth at 10 ppm relative to untreated control; assay type: functional
[2] = system: Alternaria alternata; test: Antifungal activity against boscalid-resistant Alternaria alternata expressing AaSDHC H134R mutant assessed as inhibition of mycelial growth at 10 ppm relative to untreated control; assay type: functional
[3] = system: Alternaria alternata; test: Antifungal activity against boscalid-resistant Alternaria alternata expressing AaSDHB H277Y mutant assessed as inhibition of mycelial growth at 10 ppm relative to untreated control; assay type: functional
[4] = system: Alternaria alternata; test: Antifungal activity against wild type Alternaria alternata assessed as inhibition of mycelial growth at 10 ppm relative to untreated control; assay type: functional
[5] = system: Alternaria alternata; test: Antifungal activity against boscalid-resistant Alternaria alternata isolate Aa122 expressing AaSDHC H134R mutant; assay type: functional, organism-based
[6] = system: Alternaria alternata; test: Antifungal activity against boscalid-resistant Alternaria alternata isolate Aa111 expressing AaSDHB H277Y mutant; assay type: functional, organism-based
[7] = system: Alternaria alternata; test: Antifungal activity against boscalid-resistant Alternaria alternata isolate Aa29 expressing AaSDHB H277Y mutant; assay type: functional, organism-based
[8] = system: Alternaria alternata; test: Antifungal activity against wild type Alternaria alternata isolate Aa16; assay type: functional, organism-based
[9] = system: Botrytis cinerea; test: Antifungal activity against resistant Botryotinia fuckeliana isolates obtained from excessive treatment with Signum; assay type: functional, organism-based

SMILES | inhibition at 10 ppm [1] [%] | inhibition at 10 ppm [2] [%] | inhibition at 10 ppm [3] [%] | inhibition at 10 ppm [4] [%] | EC50 [5] [ppm] | EC50 [6] [ppm] | EC50 [7] [ppm] | EC50 [8] [ppm] | EC50 [9] [ppm]
CC(C)CC(C)c1sccc1NC(=O)c1cn(C)nc1C(F)(F)F (racemic) [PENTHIOPYRAD] | 88.7 | 85.1 | 90.5 | 89.7 | – | – | – | – | –
O=C(NCCc1ncc(C(F)(F)F)cc1Cl)c1ccccc1C(F)(F)F [FLUOPYRAM] | 16.9 | 11.3 | 41.3 | 83 | 5 | 0.25 | 0.25 | < 0.25 | –
O=C(Nc1ccccc1-c1ccc(Cl)cc1)c1cccnc1Cl [BOSCALID] | 47.5 | 31.9 | 30.7 | 87.2 | > 50 | > 50 | > 50 | 0.5 | > 100
